# Results published in patent publication US10125358B2, “Methods and compounds for increasing threonyl-tRNA synthetase activity” (UNIVERSITY OF VERMONT AND STATE AGRICULTURAL COLLEGE, priority 2012, dated 2018).
# “Also recorded” adds a separate entry of the source.
# T1: TARS (Homo sapiens, UniProt P26639)
# T1 sequence (P26639 1-723): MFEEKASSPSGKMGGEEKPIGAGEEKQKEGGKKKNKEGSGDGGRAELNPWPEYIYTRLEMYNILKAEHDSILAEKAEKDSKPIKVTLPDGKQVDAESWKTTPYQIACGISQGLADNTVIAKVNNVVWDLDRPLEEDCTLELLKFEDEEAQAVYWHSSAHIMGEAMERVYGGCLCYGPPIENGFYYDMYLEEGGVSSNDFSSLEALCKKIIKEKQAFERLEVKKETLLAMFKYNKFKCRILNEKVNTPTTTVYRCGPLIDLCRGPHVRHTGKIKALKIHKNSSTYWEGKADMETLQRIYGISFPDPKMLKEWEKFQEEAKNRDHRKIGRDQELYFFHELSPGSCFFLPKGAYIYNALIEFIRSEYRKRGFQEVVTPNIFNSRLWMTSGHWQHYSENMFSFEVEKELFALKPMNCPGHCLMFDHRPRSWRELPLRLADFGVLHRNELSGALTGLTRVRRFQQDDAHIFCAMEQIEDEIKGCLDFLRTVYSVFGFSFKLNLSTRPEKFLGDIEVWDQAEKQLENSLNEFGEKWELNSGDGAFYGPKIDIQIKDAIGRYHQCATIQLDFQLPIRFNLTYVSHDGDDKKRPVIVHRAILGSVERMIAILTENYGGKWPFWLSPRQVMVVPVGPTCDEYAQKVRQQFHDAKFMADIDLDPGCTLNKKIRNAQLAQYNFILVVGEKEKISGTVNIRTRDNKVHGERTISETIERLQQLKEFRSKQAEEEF
# B1: TARS: N-terminal His6-tagged human threonyl-tRNA synthetase expressed and purified from E. coli; SEQ ID NO:2 (protein, listed as Homo sapiens)
# chain: T1 sequence (P26639 1-723)
# modifications: N-terminal His6 tag
# Legend:
# HUVECs [1] = test: Western blot for unfolded protein response (phospho-eIF2α) and apoptosis (cleaved caspase-3); type: cell-based, human; details: HUVECs in full serum media
# Description: After treatments, cells were harvested into sample buffer containing: 0.2 M Tris-HCL, 4% SDS, 4% β-mercaptoethanol, 40% glycerol, 4 μM pyronin Y. Extracts were sheared through a 24-gauge syringe. Samples were separated by 10% SDS-PAGE and transferred to nitrocellulose membrane and probed with specific antibody as described (Lounsbury, Beddow et al. 1994). Primary antibodies are as follows: Rabbit monoclonal anti-P-eIF2α (1:1000; Cell Signaling Technology, Danvers, Mass.), rabbit monoclonal anti-Cleaved Caspase-3 (1:1000; Cell Signaling Technology, Danvers, Mass.), rabbit polyclonal anti-TARS (1:500; Santa Cruz Biotechnology, Santa Cruz, Calif.). Loading control antibodies were rabbit monoclonal anti-β-actin and anti-β-tubulin (1:1000; Cell Signaling Technology, Danvers, Mass.). Secondary antibodies were HRP-goat-anti-mouse and HRP-goat-anti-rabbit (1:5,000; Jackson Laboratories, Bar Harbor, Me.).
# HUVECs [2] = test: Cell viability by Trypan Blue exclusion; type: cell-based, human; details: concentrations below 100 nM
# Description: Cell viability was measured by counting cells in a hemacytometer with Trypan Blue exclusion (Sigma-Aldrich, St. Louis, Mo.) according to manufacturer's instructions. Measurements were normalized to untreated cells.
# HUVEC = test: Nascent protein synthesis assay (Click-iT metabolic labeling); type: cell-based, human; details: HUVECs; concentrations below 100 nM
# Description: Nascent Protein Synthesis Assay—
# Nascent protein synthesis was measured using Invitrogen Click-iT® metabolic labeling reagents [Dieterich, D. C., et al., Nat Protoc 2, 532-40 (2007)]. HUVEC cultures were pre-incubated in methionine-free Dulbecco's Modified Eagle Medium (D-MEM) high glucose (Invitrogen, Life Technologies, Grand Island, N.Y.) supplemented with 10% dialyzed fetal bovine serum (Invitrogen) containing the control or test compounds. Cycloheximide (50 μM) was used as a positive control. After 45 minutes, 25 μM Click-iT® AHA (L-azidohomoalanine) (Invitrogen) was added and cultures were incubated for 3 h. Cells were lysed with 1% SDS in 50 mM Tris-HCl with protease and phosphatase inhibitors: 1 mM […], 20 […], and 4 […]. Extracts were sonicated and protein concentration was determined by Bradford assay. Protein samples were labeled with biotin alkyne (PEG4 carboxamide-propargyl biotin) (Invitrogen) using the Click-iT® Protein Reaction Buffer Kit (Invitrogen) according to manufacturer's instructions. Equal concentrations of protein were run on a 10% SDS-PAGE and transferred to nitrocellulose membrane, incubated with streptavidin-HRP reagent (Pierce Thermo Scientific, Rockford, Ill.) followed by reaction with ECL reagent (Pierce) and exposed on film.
# TARS = biological target: T1, TARS; details: calculated; see Williams, Mirando et al. 2013; cited from earlier work
# HUVECs [3] = test: VEGF secretion into culture media (ELISA); type: cell-based, human; details: purified recombinant TARS added to HUVEC media for 24 h
# Description: ELISA and Lactate Dehydrogenase Assays—
# Culture media supernatants were tested for levels of secreted TARS protein using the Threonyl tRNA Synthetase (TARS) ELISA Kit (USCN Life Science, Wuhan, Hubei, PRC) according to manufacturer's instructions. Cell membrane integrity was confirmed using the lactate dehydrogenase assay CytoTox-ONE™ Homogeneous Membrane Integrity Assay (Promega, Madison, Wis.) according to manufacturer's instructions and reported as percent cytotoxicity relative to a lysis control. Levels of secreted VEGF were measured using the Human VEGF ELISA kit (Thermo Scientific) per manufacturer's instructions.
# tRNAThr = test: Steady state aminoacylation assay; type: biochemical, E. coli or human; details: purified recombinant protein
# Description: Steady State Aminoacylation Assay—
# The aminoacylation activities of the TARS constructs were determined using modifications to established procedures (Francklyn et al 2008). Briefly, reaction mixtures consisted of 20 mM Tris-HCl pH 8.0, 100 mM KCl, 10 mM MgCl2, 1 mM dithiothreitol, 2 mM ATP, 2.5 U pyrophosphatase (Roche), 80 μM threonine, 20 μM [14C]-threonine, and 5 μM of E. coli or human tRNAThr. Reactions were initiated with the addition of 0.25-0.75 μM TARS and run at 37° C. Aliquots were taken at varying time points and spotted onto Whatmann 3MM paper filters pre-soaked in 5% trichloroacetic acid (TCA). Upon completion, the filters were washed 3 times in excess TCA, once in 95% ethanol, and dried under a heating lamp. The formation of Thr-tRNAThr was detected by scintillation counter and the activity determined by linear regression of threonyl-tRNAThr formed per active site per unit time.
# [4] = system: von Hippel Lindau protein (VHL); test: Co-immunoprecipitation of TARS and VHL from transfected HEK293 cells; type: binding, human; details: biotinylated TARS construct precipitated with streptavidin beads, HEK cells
# Sequence of von Hippel Lindau protein (VHL) (P40337 54-213 limits assumed): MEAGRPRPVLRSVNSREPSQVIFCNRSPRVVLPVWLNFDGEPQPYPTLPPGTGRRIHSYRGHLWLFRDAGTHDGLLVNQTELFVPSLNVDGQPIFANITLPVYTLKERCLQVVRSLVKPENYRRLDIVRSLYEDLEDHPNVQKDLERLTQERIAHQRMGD
# Description: Plasmids expressing biotinylatable TARS (pTARS) and myc-tagged VHL (pVHL) were transfected into HEK293 cells, and then extracts were prepared. Biotin-TARS was precipitated using streptavidin-coupled beads. Myc-VHL was precipitated using anti-myc antibodies. Precipitates were separated by SDS-PAGE, transferred and blots probed with anti-TARS antibody or anti-myc (VHL) antibody.
Molecule,stimulation of unfolded protein response (phospho-eIF2α) and apoptosis (cleaved caspase-3) (HUVECs [1]),cell viability (HUVECs [2]),nascent protein synthesis (HUVEC),Ki (TARS) [nM],secretion of VEGF (HUVECs [3]),aminoacylation activity (tRNAThr),co-precipitation of VHL [4]
C[C@@H]1C[C@H](C)C[C@H](C)[C@@H](O)CC(=O)O[C@H]([C@@H]2CC[C@H]2C(=O)O)C/C=C/C=C(/C#N)[C@H](O)[C@@H](C)C1 [BC194],high concentrations of BC194 are required,unaffected; also recorded: lack of effect,unaffected; also recorded: lack of effect,4.1,–,–,–
B1,–,–,–,–,did not induce secretion of VEGF; also recorded: does not induce VEGF secretion,exhibits aminoacyl synthetase activity,the VHL protein is co-precipitated
